Experimental data: US20260072027A1, “Peptides And Method” (Queen Mary University of London, priority 2022, published 2026)

Test system: CD8+ T-cells (PBMCs)
Assay: In vitro peptide stimulation and T-cell proliferation assay, CD8+
Type: cell-based, human
Details: for CD8+ mean SI (stimulation index): Study cohort 2
Outline: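 CellTrace Violet-labelled fresh PBMCs from type 1 diabetic and healthy donors cultured 7 days in 5% autologous plasma with or without 20 μg/ml insulin peptides. Proliferation measured by flow cytometry as dye dilution within the CD4+ or CD8+ subset. Stimulation index = % proliferation stimulated/% unstimulated.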

## LVEALYLVCGERGFFYTPKT [insulin B:11-30 native peptide]
Controls (N = 11)
  CD8+ T-cell response, subjects with SI > 1 (%): (63.6%)
  CD8+ T-cell response, subjects with SI > 3 (%): (45.5%)
  CD8+ T-cell response, subjects with SI > 5 (%): (27.3%)
  CD8+ T-cell response, subjects with SI > 10 (%): (18.2%)
Controls (N = 11), listed as Nt-INSP-4
  CD8+ T-cell response, subjects with SI > 1 (%): 63.6%
Type 1 diabetes (N = 18)
  CD8+ T-cell response, subjects with SI > 1 (%): (72.2%)
  CD8+ T-cell response, subjects with SI > 3 (%): (55.6%)
  CD8+ T-cell response, subjects with SI > 5 (%): (38.9%)
  CD8+ T-cell response, subjects with SI > 10 (%): (33.3%)
Type 1 diabetes (N = 18), listed as Nt-INSP-4
  CD8+ T-cell response, subjects with SI > 1 (%): 72.2%
controls
  CD8+ mean SI (stimulation index): 5.948±3.125
Type 1 diabetes
  CD8+ mean SI (stimulation index): 405.8±325.5
